Results taken from patent US20240382470A1, “Irak Inhibitor for Treating Cytokine Release-Related Conditions Associated With Infection by a Respiratory Virus” (Rigel Pharmaceuticals, Inc., priority 2021, published 2024).
Counter-ions that a name gives are not always drawn.

Key:
[1] = tested on: Dendritic cells + T cells + CD3/CD28 beads; assay: CRS assay, IL2 ELISA of supernatant; assay type: cell-based; details: Homo sapiens; 1 hour compound pre-incubation, overnight incubation; IL-2 only produced by activated T cells
[2] = tested on: Dendritic cells + T cells + CD3/CD28 beads; assay: CRS assay, IL6 ELISA of supernatant; assay type: cell-based; details: Homo sapiens, read-out: Dendritic cells + T cells + CD3/CD28 beads IL6* ELISA EC50 (μM)
[3] = tested on: Shp1fl/fl RosaERT2-Cre/+ mouse model of lung inflammation; details: throughout the 21 days, control chow or Compound VII-49 chow
Description: ARDS-like disease model is produced by crossing Shp1^fl/fl to Shp1^fl/flRosa^ERT2-CRE/+ mice. Rosa^ERT2-CRE/+ is expressed under a Tamoxifen inducible promoter. When Tamoxifen is administered to Shp1^fl/flRosa^ERT2-CRE/+ mice CRE recombinase is activated resulting in deletion of Shp1 in hematopoietic cells.
Tamoxifen is administered at day 1 for a total of 4 days wherein Tamoxifen is administered twice a day at 200 mg/kg/bid (400 mg/kg/day). […] Mice were euthanized on day 21.
In an effort to generate an ARDS-like disease model, Shp1^fl/fl Rosa^ERT2-CRE/+ obtained from Jackson Laboratories were crossed to Shp1^fl/fl mice. Rosa^ERT2-CRE/+ is under the control of a Tamoxifen inducible promoter. Shp1^fl/fl Rosa^ERT2-CRE/+ mice were administered Tamoxifen to activate CRE recombinase resulting in deletion of Shp1 in all cells that normally express Shp1 (FIG. 1).
Mice were euthanized on day 21.

human ACE2 = human ACE2 (Homo sapiens, UniProt Q9BYF1); details: cited from earlier work
human ACE2, sequence (Q9BYF1 18-805): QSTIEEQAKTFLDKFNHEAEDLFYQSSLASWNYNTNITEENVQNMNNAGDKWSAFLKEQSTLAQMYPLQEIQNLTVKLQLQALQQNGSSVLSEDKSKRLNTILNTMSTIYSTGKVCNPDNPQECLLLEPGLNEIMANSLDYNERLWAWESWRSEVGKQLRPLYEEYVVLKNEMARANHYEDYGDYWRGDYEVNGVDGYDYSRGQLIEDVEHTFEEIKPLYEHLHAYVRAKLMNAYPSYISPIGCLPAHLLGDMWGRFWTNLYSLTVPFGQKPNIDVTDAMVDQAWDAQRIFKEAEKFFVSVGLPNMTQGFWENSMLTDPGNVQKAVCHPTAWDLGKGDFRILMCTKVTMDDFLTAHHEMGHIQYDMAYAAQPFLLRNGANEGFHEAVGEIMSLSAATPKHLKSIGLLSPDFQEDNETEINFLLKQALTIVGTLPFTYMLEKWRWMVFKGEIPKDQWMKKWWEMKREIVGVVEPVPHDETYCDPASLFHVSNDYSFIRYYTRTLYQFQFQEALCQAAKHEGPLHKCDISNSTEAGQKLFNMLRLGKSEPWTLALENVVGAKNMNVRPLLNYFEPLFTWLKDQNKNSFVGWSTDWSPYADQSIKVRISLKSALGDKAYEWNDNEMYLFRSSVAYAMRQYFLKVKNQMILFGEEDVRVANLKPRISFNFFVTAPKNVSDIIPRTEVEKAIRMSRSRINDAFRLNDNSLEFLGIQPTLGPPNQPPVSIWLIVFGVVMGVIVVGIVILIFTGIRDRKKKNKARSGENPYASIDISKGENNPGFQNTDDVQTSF

In the case of CCO[C@H]1CC[C@H](n2cc(NC(=O)c3csc(-c4cn[nH]c4)n3)c(-c3nc(F)ccc3F)n2)CC1 [VI-176, N-(3-(3,6-difluoropyridin-2-yl)-1-((1r,4r)-4-ethoxycyclohexyl)-1H-pyrazol-4-yl)-2-(1H-pyrazol-4-yl)thiazole-4-carboxamide], the EC50 [1] is reported as 6900 nM and the EC50 [2] is reported as 0.195 µM.
In the case of CCO[C@H]1CC[C@H](n2cc(NC(=O)c3csc(-c4cnn(C(C)OP(=O)(O)O)c4)n3)c(-c3nc(F)ccc3F)n2)CC1 (stereo partly shown) [VII-49, 1-(4-(4-((3-(3,6-difluoropyridin-2-yl)-1-((1r,4r)-4-ethoxycyclohexyl)-1H-pyrazol-4-yl)carbamoyl)thiazol-2-yl)-1H-pyrazol-1-yl)ethyl dihydrogen phosphate tris salt], the mortality [3] is reported as “no mice died”.
For N[C@@H](CCN[C@@H](CCN1CC[C@H]1C(=O)O)C(=O)O)C(=O)O [nicotianamine], the IC50 (human ACE2) is listed as 84 nM.
